This is an account of results in patent publication US20240150377A1, “MODULATORS OF CYSTIC FIBROSIS TRANSMEMBRANE CONDUCTANCE REGULATOR” (VERTEX PHARMACEUTICALS INCORPORATED, priority 2020, published 2024).

Where two headings read alike, the source gives them in different places.

Experiment [1] addresses T1, CFTR (Homo sapiens, UniProt P13569, DEL508-508).
T1 construct: endogenous in cells; host or cells: primary human bronchial epithelial cells from CF subjects (F508del/MF-HBE), differentiated at air-liquid interface
As to the kind of experiment: HBE2 assay: Ussing chamber assay of CFTR-mediated short-circuit currents. The format is cell-based. To be noted: F508del/MF-HBE cells, 18-24 hours, 20% human serum; for Emax: read-out: HBE2 Max activity (%). Here is the method:
Ussing Chamber Assay of CFTR-Mediated Short-Circuit Currents
After four days the apical media was removed, and the cells were grown at an air liquid interface for >14 days prior to use.
To isolate the CFTR-mediated short-circuit (ISC) current, F508del/MF-HBE grown on Costar® Snapwell™ cell culture inserts were mounted in an Ussing chamber and the transepithelial ISC was measured under voltage-clamp recording conditions (Vhold=0 mV) at 37° C. […] The CFTR-mediated ISC (μA/cm^2) for each condition was determined from the peak forskolin response to the steady-state current following inhibition.
Identification of Corrector Compounds
The activity of the CFTR corrector compounds on the CFTR-mediated ISC was determined in Ussing chamber studies as described above.

Experiment [2] concerns the target T1, CFTR. As to the kind of experiment: HBE assay: Ussing chamber assay of CFTR-mediated short-circuit currents. The format is cell-based. To be noted: for EC50: read-out: HBE EC50. The method, boiled down: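 CFTR-mediated Isc (μA/cm²) equals the peak response to apical 20 μM forskolin minus the residual after a 20 μM each BPO/GlyH-101/CFTR inhibitor 172 cocktail, recorded in Ussing chambers at Vhold 0 mV, 37 °C, pH 7.4, with 30 μM apical amiloride. Cells were F508del/MF HBE cultures preincubated 18-24 h with corrector (concentration range or 10 μM) plus 1 μM ivacaftor in 20% human serum.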

[3] abbreviates: 3 μM corrector, with 44 nM potentiator.
Setting [4] is: Table 10, read-out: HBE Max activity (%).
Where [5] appears, read: HBE assay, 10 μM, read-out: HBE Activity at 10 μM (%).
Where [6] appears, read: Table 12, read-out: HBE Max Activity (%).

As usually defined, the EC50 is the concentration that produces a half-maximal response.

T1 sequence (P13569 with tags, fused parts or gaps DEL508-508): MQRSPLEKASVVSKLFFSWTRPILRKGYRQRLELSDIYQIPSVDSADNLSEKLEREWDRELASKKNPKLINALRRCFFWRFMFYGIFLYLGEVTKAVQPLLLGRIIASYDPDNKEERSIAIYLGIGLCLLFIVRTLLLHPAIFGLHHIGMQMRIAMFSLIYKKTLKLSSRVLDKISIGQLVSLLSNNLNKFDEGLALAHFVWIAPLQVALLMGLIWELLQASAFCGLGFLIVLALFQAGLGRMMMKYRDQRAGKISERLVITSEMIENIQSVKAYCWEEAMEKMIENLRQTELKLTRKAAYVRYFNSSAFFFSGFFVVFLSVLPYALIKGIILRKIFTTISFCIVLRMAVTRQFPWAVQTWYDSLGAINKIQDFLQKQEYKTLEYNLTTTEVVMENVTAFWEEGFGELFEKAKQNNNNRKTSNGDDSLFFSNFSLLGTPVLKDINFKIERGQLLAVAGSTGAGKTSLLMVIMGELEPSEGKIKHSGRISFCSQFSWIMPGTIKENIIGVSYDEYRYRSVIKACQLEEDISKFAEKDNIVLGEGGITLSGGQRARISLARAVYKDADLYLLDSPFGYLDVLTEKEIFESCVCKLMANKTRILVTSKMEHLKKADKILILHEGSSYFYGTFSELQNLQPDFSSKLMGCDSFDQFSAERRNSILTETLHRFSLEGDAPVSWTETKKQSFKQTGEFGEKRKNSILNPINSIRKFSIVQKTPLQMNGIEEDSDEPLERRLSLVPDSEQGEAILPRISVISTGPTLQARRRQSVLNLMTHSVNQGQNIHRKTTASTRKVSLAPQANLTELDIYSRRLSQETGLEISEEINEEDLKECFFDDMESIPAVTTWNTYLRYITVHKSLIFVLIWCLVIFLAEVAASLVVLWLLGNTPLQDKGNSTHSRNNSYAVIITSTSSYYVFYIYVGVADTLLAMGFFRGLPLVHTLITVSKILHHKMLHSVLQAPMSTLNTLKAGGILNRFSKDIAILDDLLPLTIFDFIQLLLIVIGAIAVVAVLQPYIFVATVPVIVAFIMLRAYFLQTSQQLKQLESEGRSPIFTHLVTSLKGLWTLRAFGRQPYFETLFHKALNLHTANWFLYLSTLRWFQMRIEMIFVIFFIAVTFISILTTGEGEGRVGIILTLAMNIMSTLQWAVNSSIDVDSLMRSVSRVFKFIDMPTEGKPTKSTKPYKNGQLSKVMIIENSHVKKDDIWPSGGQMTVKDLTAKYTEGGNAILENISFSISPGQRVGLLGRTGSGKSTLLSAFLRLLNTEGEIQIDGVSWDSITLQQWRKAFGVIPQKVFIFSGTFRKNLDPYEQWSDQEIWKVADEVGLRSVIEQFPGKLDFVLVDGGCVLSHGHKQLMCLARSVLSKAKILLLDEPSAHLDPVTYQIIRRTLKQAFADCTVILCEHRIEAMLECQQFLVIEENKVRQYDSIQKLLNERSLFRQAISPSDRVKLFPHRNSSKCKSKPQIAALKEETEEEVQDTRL

In the case of `Cc1cccc(C)c1-c1cc2nc(n1)NS(=O)(=O)c1cccc(c1)C(=O)N(Cc1cncc(C3CCOCC3)n1)[C@H](CCC(C)(C)C)CO2` [Compound 1879], the “HBE2 Activity at 3 μM (%)” value at CFTR [1] (setting [3]) is on record as “+++ (+++ is >60+)”.
As to `CCC(C)(C)C[C@@H]1COc2cc(-c3c(C)cccc3C)nc(n2)NS(=O)(=O)c2cccc(c2)C(=O)N1Cc1cncc(N2CCCC[C@H]2C)n1` [Compound 1863], at CFTR [1] (setting [3]), the “HBE2 Activity at 3 μM (%)” value is “+++ (+++ is >60+)”.
The same measure, in the same setting: next, `Cc1cccc(C)c1-c1cc2nc(n1)NS(=O)(=O)c1cccc(c1)C(=O)N(Cc1cncc(N3CCC[C@@H]3C)n1)[C@H](COC1CC1)CO2` (stereo in doubt) [Compound 1892]: “+++ (+++ is >60+)”.
On to `Cc1cccc(C)c1-c1cc2nc(n1)NS(=O)(=O)c1cccc(c1)C(=O)N(Cc1cncc(N(C)C3CCC3)n1)[C@@H]1CCN(C3CC4(CCCC4)C3)C[C@H]1O2` [Compound 1768], for which, on CFTR [1] (setting [3]), the “HBE2 Activity at 3 μM (%)” value is recorded as “+++ (+++ is >60+)”.
Regarding `Cc1cccc(C)c1-c1cc2nc(n1)NS(=O)(=O)c1cccc(c1)C(=O)N(Cc1cncc(N3CCC3CNC(=O)OC(C)(C)C)n1)[C@H](CC(C)(C)C)CO2` (stereo partly shown) [Compound 1699], the “HBE2 Activity at 3 μM (%)” value at CFTR [1] (3 μM, with 44 nM potentiator) is reported as “+++ (+++ is >60+)”.
On to `Cc1cccc(C)c1-c1cc2nc(n1)NS(=O)(=O)c1cccc(c1)C(=O)N(Cc1cncc(N3CCC4CCC43)n1)[C@H](COC1CC1)CO2` (stereo in doubt) [Compound 1909], for which the “HBE2 Activity at 3 μM (%)” value on CFTR [1] (setting [3]) is reported as “+++ (+++ is >60+)”.
For `Cc1cccc(C)c1-c1cc2nc(n1)NS(=O)(=O)c1cc(n(C)n1)C(=O)N(Cc1cncc(N(C)C3CCC3)n1)[C@H](CC(C)(C)C)CO2` [Compound 1944], the “HBE2 Activity at 3 μM (%)” value on CFTR [1] (setting [3]) is recorded as “+++ (+++ is >60+)”.
Still for that read-out and setting: under `Cc1cccc(C)c1-c1cc2nc(n1)NS(=O)(=O)c1cccc(c1)C(=O)N(Cc1cncc(N3CCCC[C@H]3C)n1)[C@H](C[C@H]1CCCOC1)CO2` (stereo in doubt) [Compound 1942] stands “+++ (+++ is >60+)”.
Turning to `Cc1cccc(C)c1-c1cc2nc(n1)NS(=O)(=O)c1cccc(c1)C(=O)N(Cc1cncc(N3CC4OCC[C@@H]43)n1)[C@H](CC(C)(C)C)CO2` (stereo in doubt) [Compound 1628], the “HBE2 Activity at 3 μM (%)” value at CFTR [1] (3 μM, with 44 nM potentiator) is “+++ (+++ is >60+)”.
The same measure, in the same setting: under `Cc1cccc(C)c1-c1cc2nc(n1)NS(=O)(=O)c1cccc(c1)C(=O)N(Cc1cncc(N3CCCCC34CCC4)n1)[C@H](CC(C)(C)C)CO2` [Compound 1626] stands “+++ (+++ is >60+)”.
Take `Cc1cccc(C)c1-c1cc2nc(n1)NS(=O)(=O)c1cccc(c1)C(=O)N(Cc1cncc(N3CC[C@H]3C)n1)[C@H](CCC(C)(C)C)CO2` [Compound 1726]: on CFTR [1] (setting [3]), the “HBE2 Activity at 3 μM (%)” value is “+++ (+++ is >60+)”. In addition, the EC50 at CFTR [1] (corrector at a range of concentrations with 44 nM potentiator) was below 1000 nM. Moreover, on CFTR [1] (with 44 nM potentiator), the Emax was above 60%.
For `Cc1cccc(C)c1-c1cc2nc(n1)NS(=O)(=O)c1cccc(c1)C(=O)N(Cc1cccc(N(C)C(C)C)n1)[C@H](CC1(C)CCC1)CO2` [Compound 1762], at CFTR [1] (setting [3]), the “HBE2 Activity at 3 μM (%)” value is “+++ (+++ is >60+)”.
On to `CC(=O)N[C@H](C)c1cccc(CN2C(=O)c3cccc(c3)S(=O)(=O)Nc3nc(cc(-c4c(C)cccc4C)n3)OC[C@H]2CC(C)(C)C)n1` [Compound 1592], for which the “HBE2 Activity at 3 μM (%)” value at CFTR [1] (3 μM, with 44 nM potentiator) is recorded as “+++ (+++ is >60+)”.
Take `Cc1cccc(C)c1-c1cc2nc(n1)NS(=O)(=O)c1cccc(c1)C(=O)N(Cc1cncc(N(C)C3CCC3)n1)[C@]1(CCC(C)(C)C1)CO2` (single isomer, unassigned) [Compound 1326, 12-[[6-[cyclobutyl(methyl)amino]pyrazin-2-yl]methyl]-6-(2,6-dimethylphenyl)-1′,1′-dimethyl-2,2-dioxo-spiro[9-oxa-2λ^6-thia-3,5,12,19-tetrazatricyclo[12.3.1.14,8]nonadeca-1(18),4(19),5,7,14,16-hexaene-11,3′-cyclopentane]-13-one]: at CFTR [1] (setting [3]), the “HBE2 Activity at 3 μM (%)” value is on record as “+++ (+++ is >60+)”.
In the case of `Cc1cccc(C)c1-c1cc2nc(n1)NS(=O)(=O)c1cccc(c1)C(=O)N(Cc1cncc(N(C)CC(C)C)n1)[C@H](CC1CC1)CO2` [Compound 1710], the “HBE2 Activity at 3 μM (%)” value at CFTR [1] (3 μM, with 44 nM potentiator) is reported as “+++ (+++ is >60+)”. Besides, at CFTR [1] (with 44 nM potentiator), the EC50 was below 1000 nM and the Emax is above 60%.
Take `Cc1cccc(C)c1-c1cc2nc(n1)NS(=O)(=O)c1cccc(c1)C(=O)N(Cc1ncc(OC(C)C)cn1)[C@H]([C@@H](C)C(C)C)CO2` (stereo in doubt) [Compound 1572]: the “HBE2 Activity at 3 μM (%)” value at CFTR [1] (3 μM, with 44 nM potentiator) is “+++ (+++ is >60+)”.
With `Cc1cccc(C)c1-c1cc2nc(n1)NS(=O)(=O)c1cccc(c1)C(=O)N(Cc1cncc(N(C)C3CC(F)(F)C3)n1)[C@H](COC(C)C)CO2` [Compound 1946], the “HBE2 Activity at 3 μM (%)” value on CFTR [1] (setting [3]) is “+++ (+++ is >60+)”.
On the same count and under the same terms, under `CCC(CC)N(C)c1cncc(CN2C(=O)c3cccc(c3)S(=O)(=O)Nc3nc(cc(-c4c(C)cccc4C)n3)OC[C@H]2CC(C)(C)C)n1` [Compound 1754] stands “+++ (+++ is >60+)”.
On to `Cc1cccc(C)c1-c1cc2nc(n1)NS(=O)(=O)c1cccc(c1)C(=O)N(Cc1ncc(OC(C)C)cn1)[C@H](CC1CCC1)[C@@H](C)O2` [Compound 1567], for which, on CFTR [1] (3 μM, with 44 nM potentiator), the “HBE2 Activity at 3 μM (%)” value is “+++ (+++ is >60+)”.
As for `Cc1cc(N2CCC(C)(C)C2)cnc1CN1C(=O)c2cccc(c2)S(=O)(=O)Nc2nc(cc(-c3c(C)cccc3C)n2)OC[C@H]1CC(C)(C)C` [Compound 1135], the half-maximal effective concentration (EC50) on CFTR [2] (Table 13) is below 1000 nM. The Emax on CFTR [2] (Table 13, read-out: HBE Max Activity (%)) was above 60%.
Turning to `CC[C@H](C)[C@@H]1COc2cc(-c3c(C)cccc3C)nc(n2)NS(=O)(=O)c2cccc(c2)C(=O)N1Cc1ncc(OC(C)C)cn1` [Compound 1471], the EC50 on CFTR [2] (HBE assay) is below 1000 nM. The Emax at CFTR [2] (HBE assay, read-out: HBE Max activity (%)) is above 60%.
`Cc1cccc(C)c1-c1cc2nc(n1)NS(=O)(=O)c1cccc(c1)C(=O)N(CC1(C(=O)O)CC1)[C@H](CC(C)(C)C)CO2` [Compound 450]: the activation at 10 µM at CFTR [2] (Table 12, at 10 μM, read-out: HBE Activity at 10 μM (%)) was in the range of 30 to 60%. For the same compound, on CFTR [2] (Table 12), the EC50 was below 1000 nM.
As to `CNC(=O)COc1ccc(CN2C(=O)c3cccc(c3)S(=O)(=O)Nc3nc(cc(-c4c(C)cccc4C)n3)OC[C@H]2CC(C)(C)C)cc1` [Compound 778], the EC50 at CFTR [2] (Table 10) was below 1000 nM. The Emax on CFTR [2] (setting [4]) is above 60%.
Turning to `Cc1cccc(C)c1-c1cc2nc(n1)NS(=O)(=O)c1cccc(c1)C(=O)N(CC(=O)N(C)CC1CCCOC1)[C@H](CC(C)(C)C)CO2` (stereo partly shown) [Compound 193], at CFTR [2] (Table 13, at 10 μM, read-out: HBE Activity at 10 μM (%)), the activation at 10 µM is above 600%.
For `Cc1cccc(C)c1-c1cc2nc(n1)NS(=O)(=O)c1cccc(c1)C(=O)N(C(C)c1ccc(-c3c(C)n[nH]c3C)cc1)[C@H](CC(C)(C)C)CO2` (stereo partly shown) [Compound 294], the activation at 10 µM on CFTR [2] (Table 10, at 10 μM, read-out: HBE activity at 10 (μM) (%)) was above 60%.
Take `Cc1cccc(C)c1-c1cc2nc(n1)NS(=O)(=O)c1cccc(c1)C(=O)N(Cc1ncc(N3CCC(C)(F)CC3)cn1)[C@H](CC(C)(C)C)CO2` [Compound 1442]: the activation at 10 µM on CFTR [2] (setting [5]) is above 60%.
For the compound `COCCN(C)c1cncc(CN2C(=O)c3cccc(c3)S(=O)(=O)Nc3nc(cc(-c4c(C)cccc4C)n3)OC[C@H]2CC(C)(C)C)n1` [Compound 895], at CFTR [2] (Table 11), the 50% effective concentration (EC50) was below 1000 nM. Further, the Emax at CFTR [2] (Table 11, read-out: HBE Max Activity (%)) was above 60%.
As to `Cc1cccc(C)c1-c1cc2nc(n1)NS(=O)(=O)c1cccc(c1)C(=O)N(Cc1ccnc(OC(C)C)n1)[C@H](CC(C)(C)C)CO2` [Compound 595], the EC50 on CFTR [2] (Table 12) is below 1000 nM. Further, the Emax on CFTR [2] (setting [6]) is above 60%.
Consider `COCCN(C)c1cccc(CN2C(=O)c3cccc(c3)S(=O)(=O)Nc3nc(cc(-c4c(C)cccc4C)n3)OC[C@H]2CC(C)(C)C)n1` [Compound 488], for which, on CFTR [2] (Table 10), the half-maximal effective concentration (EC50) was below 1000 nM. For the same compound, the Emax at CFTR [2] (setting [4]) is above 60%.
As for `CC(C)c1cccc(C(C)C)c1-c1cc2nc(n1)NS(=O)(=O)c1cccc(c1)C(=O)N(Cc1ccc(N3CCOCC3)cn1)[C@H](CC(C)(C)C)CO2` [Compound 831], on CFTR [2] (setting [4]), the Emax is above 60%.
With `Cc1cccc(C)c1-c1cc2nc(n1)NS(=O)(=O)c1cccc(c1)C(=O)N(Cc1cccc(N(C)C(C)C(C)(C)C)n1)[C@H](CC(C)(C)C)CO2` (stereo partly shown) [Compound 1427], the activation at 10 µM at CFTR [2] (setting [5]) was above 60%.
Turning to `Cc1cccc(C)c1-c1cc2nc(n1)NS(=O)(=O)c1cccc(c1)C(=O)N(Cc1nc3ccccc3n1C)[C@H](CC(C)(C)C)CO2` [Compound 268], the EC50 on CFTR [2] (Table 12) is below 1000 nM. Also, the Emax on CFTR [2] (setting [6]) was above 60%.
As to `COC[C@@H]1CCCN1c1cncc(CN2C(=O)c3cccc(c3)S(=O)(=O)Nc3nc(cc(-c4c(C)cccc4C)n3)OC[C@H]2CC(C)(C)C)n1` [Compound 273], the concentration for a half-maximal effect (EC50) at CFTR [2] (Table 12) was below 1000 nM. In addition, at CFTR [2] (setting [6]), the Emax was above 60%.
